Measured values reported in ChEMBL document CHEMBL3600283, “Enthalpic Forces Correlate with the Selectivity of Transthyretin-Stabilizing Ligands in Human Plasma” (J Med Chem, 2015).

Columns and labels:
Transthyretin [1] = biological target: T1, Transthyretin (Homo sapiens, UniProt P02766); experiment: Binding affinity to TTR in human plasma assessed as protein stabilization preincubated for 1 hr followed by urea-mediated denaturation by Western blot analysis
Transthyretin [2] = biological target: T1, Transthyretin; experiment: Binding affinity to TTR (unknown origin) by isothermal titration calorimetric analysis
[3] = Half life in plasma (unknown origin); assay type: ADME, cell-free

Row | Structure (SMILES) | IC50 (Transthyretin [1]; read-out: IC50) | Kd (Transthyretin [2]) | half-life [3] | IC50 (Transthyretin [1])
1 | O=C(O)COC(=O)Cc1ccccc1Nc1c(Cl)cccc1Cl [ACECLOFENAC] | 170 µM | 1200 nM | – | –
2 | O=c1cc(-c2ccc(O)cc2)oc2cc(O)cc(O)c12 [APIGENIN] | – | 250 nM | – | 18 µM
3 | O=C(O)Cc1ccccc1Nc1c(Cl)cccc1Cl [DICLOFENAC] | 140 µM | 1000 nM | – | –
4 | Cc1ccc(C)c(OCCCC(C)(C)C(=O)O)c1 [GEMFIBROZIL] | 180 µM | 100 nM | 90 min | –
5 | O=c1cc(-c2ccc(O)c(O)c2)oc2cc(O)cc(O)c12 [LUTEOLIN] | 7 µM | 70 nM | – | –

The remaining compounds from weak to strong by IC50 (Transthyretin [1]; read-out: IC50), led by results:

Row | IC50 (Transthyretin [1]; read-out: IC50) | Kd (Transthyretin [2]) | half-life [3] | Structure (SMILES) | IC50 (Transthyretin [1])
6 | 50 µM | 480 nM | – | Cc1ccc(Cl)c(Nc2ccccc2C(=O)O)c1Cl [MECLOFENAMIC ACID] | –
7 | 40 µM | 150 nM | – | Cc1c(Cl)cccc1Nc1ccccc1C(=O)O [TOLFENAMIC ACID] | –
